# Assay results from article PMC10259803 (PLOS Pathogens, 2023).
# How the values were obtained:
# porcine trypsin gold = porcine trypsin gold (Promega #V5280); conditions: room temperature, up to thirty minutes
# D39x comC^- = assay: in vitro recombination frequency, D39x comC^-; assay type: cell-based, Streptococcus pneumoniae; conditions: for reduction of recombination frequency upon incubation of modified CSP with trypsin-like proteases: both PPT and HAT, compared with unmodified CSP1; for HAT concentration to reduce the recombination frequency to below 5% of 0 trypsin: CSP incubated with HAT 30 min; for HAT concentration to reduce the recombination frequency to below 5% of 0 trypsin / PPT concentration to reduce the recombination frequency to below 5% of 0 trypsin: room temperature; for PPT concentration to reduce the recombination frequency to below 5% of 0 trypsin: CSP incubated with PPT 30 min
# Protocol: (§1) During culture incubation, porcine pancreatic trypsin (PPT; Sigma #T4799) was reconstituted in Hank’s balanced salt solution (Gibco) and incubated with either water or 4-(2-Aminoethyl) benzenesulfonyl fluoride hydrochloride (AEBSF; Cayman #14321) in a total volume of 50μL 30mM Tris, pH 8.5 and incubated for 15 minutes, room temperature. CSP1 or CSP2 was added, followed by incubation for 30 minutes, room temperature. When the culture reached OD620~0.08, 1 mL of culture was transferred to the PPT-AEBSF-CSP mixture and 2 μg of D39 Tn-seq library gDNA (D39 strains) or 2 μg of TIGR4 Tn-seq library gDNA (TIGR4 strains) was added. […] Upon addition of the culture, the final concentration of PPT ranged from 0–10 μg/mL, AEBSF was 0.1 mM, CSP was 3 μg/mL, and gDNA was 2 μg/mL. The transformation was incubated for 3 hours at 37°C, 5% CO2, followed by serial dilution and plating on two TSA blood plates and two TSA blood plates supplemented with 200 μg/mL spectinomycin. To observe low-frequency recombination events, 200 μL of the transformation was also spread plated on two TSA blood plates supplemented with 200 μg/mL spectinomycin. For transformations with HAT incubated CSP, HAT (Bio-techne R&D #2695-SE-010) was reconstituted in 25mM Tris, 150mM NaCl, pH 7.5. All incubation times and final concentrations were the same as for PPT; however, the volumes were 1/10th as that for PPT. For both PPT and HAT, the experiment was repeated at least three times.
# D39x = assay: ex vivo recombination frequency with mouse lung homogenate, D39x; assay type: cell-based, Streptococcus pneumoniae; conditions: for ex vivo recombination frequency with homogenized lungs of mice treated in vivo: poly (I:C) 50 μL of 1 mg/mL IN daily 4 days, AEBSF 125 μg IN daily 3 days along with poly (I:C), 0 mM AEBSF ex vivo
# Protocol: To determine the impact of proteases from the lungs of mice on recombination frequency, a similar experimental setup as the in vitro recombination frequency was performed. […] During culture incubation, the lungs of 10-week-old female Balb/cJ mice (N = 7) were harvested and homogenized in 600 μL PBS. Lung homogenate was incubated with either water or AEBSF for 30 minutes, room temperature. 60 μL of lung homogenate-AEBSF mixture was transferred to a new tube. Addition of CSP1, culture, and gDNA and transformation was performed in the same manner as the in vitro recombination frequency. The final concentration of CSP was 3 μg/mL and gDNA was 2 μg/mL. The final concentration of AEBSF was 0mM, 1 mM, or 2mM. The lung from each mouse was divided into six transformations: D39x with lungs incubated with 0mM, 1 mM, or 2mM AEBSF and D39x comC^- with lungs incubated with 0mM, 1 mM, or 2mM AEBSF. As a control, the same culture of D39x and D39x comC^- were transformed with gDNA and CSP1 incubated with AEBSF in PBS. Recombination frequency of the transformation with CSP1 incubated with 1 mM and with 2 mM AEBSF were compared to that incubated with 0 mM AEBSF using Kruskal-Wallis one-way ANOVA in Graphpad 6.
# Lungs were harvested and homogenized in 600 μL PBS. The homogenates from all lungs were subjected to the ex vivo protocol described above and the recombination frequency of D39x and D39x comC^- subjected to lungs incubated with 0mM, 1 mM, or 2mM AEBSF and CSP1 was determined.
# [1] = test system: serine proteases in mouse lung homogenates and sera; assay: Protease levels (fluorescence of substrate BOC); assay type: biochemical; conditions: for Protease levels in lungs and sera of treated mice: poly (I:C) vs control mice (lungs and sera), AEBSF prior to poly (I:C) vs poly (I:C) alone (lungs)
# Protocol: For ex vivo experiments, the protease levels were measured from the same lung homogenate used in the ex vivo recombination frequency experiment, adapting the protocol from the HAT manufacturer (Bio-techne R&D). After the lungs were incubated with either water or AEBSF, 50 μL of lung homogenate mixture was transferred to a black, 96-well plate. 50 μL of substrate t-Butyloxycarbonyl Phe-Ser-Arg 7-amino-4methyl coumarin (Bachem # I1400) was added directly to the well, incubated for 10 minutes at room temperature, and fluorescence (380 excitation; 460 emission) was detected in a Biotek Cytation 3. Protease levels of lung homogenates incubated with 1 mM and 2 mM AEBSF were compared to that incubated with 0 mM AEBSF using one-way ANOVA and correlation between protease levels and recombination frequency was compared using two-tailed spearman in Graphpad 6.
# For in vivo experiments, homogenized lungs were further clarified after plating on TSA plates via centrifugation at 10,000xg, 5min. Sera was separated from whole blood via centrifugation at 10,000xg, 5 min in sera-collection tubes. The clarified homogenates and sera were transferred to a black, 96-well plate and 50 μL of substrate t-Butyloxycarbonyl Phe-Ser-Arg 7-amino-4methyl coumarin was added directly to the well and fluorescence (380 excitation; 460 emission) was detected in a Biotek Cytation 3. Protease levels of all groups were compared pairwise for each tissue using unpaired t test and correlation between protease levels and recombination frequency was compared using two-tailed spearman in Graphpad 6.
# S. pneumoniae D39 = assay: in vivo recombination frequency, poly (I:C) / AEBSF treated mice; conditions: Balb/cJ mice; poly (I:C) 50 μL of 1 mg/mL IN daily 4 days vs vehicle; AEBSF 125 μg IN prior to poly (I:C) vs poly (I:C) without inhibitor; 20 h after challenge
# TIGR4 = assay: in vitro recombination frequency, TIGR4; assay type: cell-based, Streptococcus pneumoniae; conditions: CSP2; PPT or HAT; 0.1 mM AEBSF
# Protocol: as §1, with “For both PPT and HAT, the experiment was repeated at least three times.” left out
# DLA3 [2] = assay: Growth (OD620) of DLA3; conditions: DLA3 with CSP1 incubated with trypsin with and without AEBSF (S1 Fig)
# Protocol: A similar protocol as the in vitro recombination frequency was followed. DLA3 was inoculated in C+Y at OD620~0.03. Either PPT or HAT was incubated with water or AEBSF for 15 minutes, room temperature, followed by incubation with CSP1 for thirty minutes in a total volume of 5 μL 30mM Tris, pH 8.5. When the culture reached OD620~0.08, cells were pelleted at 6,000xg, 5 min and resuspended in fresh C+Y. 100 μL of the culture was added to the Trypsin-AEBSF-CSP mixture, followed by transfer to a white-walled, clear-bottom 96-well plate and addition of 5 μL of 10 mg/mL luciferin (Sigma #L6882). Luminescence and OD620 measurements were taken every 30 minutes in a Biotek Cytation 3. Increasing concentrations of protease within each group (0 mM AEBSF or 0.1 mM AEBSF) were compared using two-way ANOVA in Graphpad 6.
# Absorbance at OD620 of DLA3 grown in the presence of CSP1 incubated with increasing concentrations of trypsin with and without inhibitor AEBSF. Incubation of CSP1 with PPT (A) without AEBSF or (B) with AEBSF. Incubation of CSP1 with HAT (C) without AEBSF or (D) with AEBSF. Experiment was repeated in triplicate. The mean value of OD620 of each 30-minute timepoint is reported; error bars are SEM.
# DLA3 [3] = assay: Luminescence assay, DLA3 (PssbB-luc competence reporter); conditions: CSP1; 0.1 mM AEBSF
# Protocol: DLA3 was inoculated in C+Y at OD620~0.03. Either PPT or HAT was incubated with water or AEBSF for 15 minutes, room temperature, followed by incubation with CSP1 for thirty minutes in a total volume of 5 μL 30mM Tris, pH 8.5. When the culture reached OD620~0.08, cells were pelleted at 6,000xg, 5 min and resuspended in fresh C+Y. 100 μL of the culture was added to the Trypsin-AEBSF-CSP mixture, followed by transfer to a white-walled, clear-bottom 96-well plate and addition of 5 μL of 10 mg/mL luciferin (Sigma #L6882). Luminescence and OD620 measurements were taken every 30 minutes in a Biotek Cytation 3.
# porcine trypsin = biological target: T1, porcine trypsin (Sus scrofa, UniProt P00761); assay: Mass spectrometry of CSP cleavage by porcine trypsin; assay type: in vitro ADME; conditions: 30 min, room temperature
# T1 construct: purchased Promega V5280
# Protocol: Fig 1 Serine proteases cleave competence-stimulating peptide of S. pneumoniae. (A) Sequence of competence-stimulating peptide 1 (CSP1) and peptide 2 (CSP2). Red arrows indicate potential cleavage sites by trypsin-like serine proteases. (B) Mass spectrometry analysis of cleaved residues of CSP1 upon incubation with no trypsin (grey) or with porcine trypsin (black) for 30 minutes. (C) Mass spectrometry analysis of cleaved residues of CSP1 upon incubation with no trypsin (grey) or with human airway trypsin (HAT) (black) for 30 minutes. (D) Mass spectrometry analysis of cleaved residues of CSP2 upon incubation with no trypsin (grey) or with porcine trypsin (black) for 30 minutes. (E) Mass spectrometry analysis of cleaved residues of CSP2 upon incubation with no trypsin (grey) or with HAT (black) for 30 minutes. (B-E) The fraction of each peptide detected by mass spectrometry was calculated by dividing the area of the cleaved peptide by the total area of all peptides. In the case of two cleavage sites on the same peptide, the fraction was equally attributed to both cleavage sites. […]
# CSPs was incubated with either porcine trypsin gold (Promega #V5280) or human airway trypsin-like protease (HAT; Bio-techne R&D #2695-SE-010) for thirty minutes, room temperature. […] The eluted peptides were ionized by electrospray ionization and detected by an inline mass spectrometer (Thermo Orbitrap Fusion). […]
# T1 sequence (P00761 9-231): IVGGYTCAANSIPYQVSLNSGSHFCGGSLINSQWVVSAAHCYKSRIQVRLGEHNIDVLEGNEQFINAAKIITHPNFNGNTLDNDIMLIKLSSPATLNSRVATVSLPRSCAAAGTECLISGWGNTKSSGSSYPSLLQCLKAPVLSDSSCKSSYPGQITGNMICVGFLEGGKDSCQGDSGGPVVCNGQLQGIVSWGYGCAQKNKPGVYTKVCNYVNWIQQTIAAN
molecule,measurement,setting,value
EMRISRIILDFLFLRKK,cleaved bond,porcine trypsin gold,R6-I7 and E-M and D-F
CC[C@H](C)[C@H](NC(=O)[C@H](Cc1ccccc1)NC(=O)[C@H](CC(=O)O)NC(=O)[C@H](CCCNC(=N)N)NC(=O)[C@H](Cc1ccccc1)NC(=O)[C@H](Cc1ccccc1)NC(=O)[C@H](CCCCN)NC(=O)[C@H](CO)NC(=O)[C@H](CC(C)C)NC(=O)[C@H](CCCNC(=N)N)NC(=O)[C@H](CCSC)NC(=O)[C@@H](N)CCC(=O)O)C(=O)N[C@@H](CC(C)C)C(=O)N[C@@H](CCC(N)=O)C(=O)N[C@@H](Cc1c[nH]cn1)C(=O)N[C@@H](CCCCN)C(=O)N[C@@H](CCCCN)C(=O)O [R15H],reduction of recombination frequency upon incubation of modified CSP with trypsin-like proteases,D39x comC^-,similarly to that of unmodified CSP1
poly (I:C),ex vivo recombination frequency with homogenized lungs of mice treated in vivo,D39x,reduced
same,Protease levels in lungs and sera of treated mice,[1]; BOC substrate fluorescence,higher
same,"protease levels in inflamed lungs, equated to recombinant HAT","[1]; recombinant HAT standard, 35000 RFU = 0.05 μg/mL, non-inflamed lungs 0.079 (±0.010)",0.168 (±0.012) μg/mL
same,in vivo recombination frequency of D39 in lungs and blood,S. pneumoniae D39,significant reduction
CC[C@H](C)[C@H](NC(=O)[C@H](Cc1ccccc1)NC(=O)[C@H](CC(=O)O)NC(=O)[C@H](CCCNC(=N)N)NC(=O)[C@H](Cc1ccccc1)NC(=O)[C@H](Cc1ccccc1)NC(=O)[C@H](Cc1c[nH]cn1)NC(=O)[C@H](CO)NC(=O)[C@H](CC(C)C)NC(=O)[C@H](CCCNC(=N)N)NC(=O)[C@H](CCSC)NC(=O)[C@@H](N)CCC(=O)O)C(=O)N[C@@H](CC(C)C)C(=O)N[C@@H](CCC(N)=O)C(=O)N[C@@H](CCCNC(=N)N)C(=O)N[C@@H](CCCCN)C(=O)N[C@@H](CCCCN)C(=O)O [K6H],reduction of recombination frequency upon incubation of modified CSP with trypsin-like proteases,D39x comC^-,similarly to that of unmodified CSP1
CC[C@H](C)[C@H](NC(=O)[C@H](Cc1ccccc1)NC(=O)[C@H](CC(=O)O)NC(=O)[C@H](Cc1c[nH]cn1)NC(=O)[C@H](Cc1ccccc1)NC(=O)[C@H](Cc1ccccc1)NC(=O)[C@H](CCCCN)NC(=O)[C@H](CO)NC(=O)[C@H](CC(C)C)NC(=O)[C@H](CCCNC(=N)N)NC(=O)[C@H](CCSC)NC(=O)[C@@H](N)CCC(=O)O)C(=O)N[C@@H](CC(C)C)C(=O)N[C@@H](CCC(N)=O)C(=O)N[C@@H](CCCNC(=N)N)C(=O)N[C@@H](CCCCN)C(=O)N[C@@H](CCCCN)C(=O)O [R9H],HAT concentration to reduce recombination frequency below 5% of 0 trypsin: times less compared to unmodified CSP1,D39x comC^-; CSP incubated with HAT,2 times
same,HAT concentration to reduce the recombination frequency to below 5% of 0 trypsin,D39x comC^-,0.5 µg/mL
same,PPT concentration to reduce recombination frequency below 5% of 0 trypsin: times less compared to unmodified CSP1,D39x comC^-; CSP incubated with PPT,5 times
same,PPT concentration to reduce the recombination frequency to below 5% of 0 trypsin,D39x comC^-,0.01 µg/mL
same,reduction of recombination frequency upon incubation of modified CSP with trypsin-like proteases,D39x comC^-,to a greater extent than the unmodified CSP1
"Cl.NCCc1ccc(S(=O)(=O)F)cc1 [AEBSF, 4-(2-Aminoethyl) benzenesulfonyl fluoride hydrochloride]",recombination frequency with CSP1 incubated with PPT or HAT pre-incubated with AEBSF,"D39x comC^-; 0.1 mM AEBSF, protease pre-incubated 15 min",at a similar level as that of the no trypsin control
same,protease-caused reduction of recombination frequency when proteases were incubated with AEBSF,TIGR4,abrogated
same,recombination frequency with CSP1 incubated with AEBSF alone,"D39x; CSP1 in PBS with increasing AEBSF, no lung homogenate, D39x and D39x comC^- (S3 Fig)",did not increase
same,recombination frequency with CSP1 incubated with lung homogenates treated with AEBSF,D39x; mouse lung homogenate incubated 30 min with 1 or 2 mM AEBSF vs 0 mM,increased
same,ex vivo recombination frequency with homogenized lungs of mice treated in vivo,D39x,restored
same,levels of serine proteases in the lung homogenates,"[1]; lung homogenate incubated with 1 or 2 mM AEBSF, BOC substrate fluorescence",decreased
same,Protease levels in lungs and sera of treated mice,[1]; BOC substrate fluorescence,reduced
same,Growth of S. pneumoniae (OD620),DLA3 [2],not reduced
same,PPT-caused reduction of DLA3 luminescence when PPT was pre-incubated with AEBSF,DLA3 [3],abrogated
same,in vivo recombination frequency of D39 in lungs and blood,S. pneumoniae D39,higher frequency
CC[C@H](C)[C@H](NC(=O)[C@H](Cc1ccccc1)NC(=O)[C@H](CC(=O)O)NC(=O)[C@H](CCCNC(=N)N)NC(=O)[C@H](Cc1ccccc1)NC(=O)[C@H](Cc1ccccc1)NC(=O)[C@H](CCCCN)NC(=O)[C@H](CO)NC(=O)[C@H](CC(C)C)NC(=O)[C@H](CCCNC(=N)N)NC(=O)[C@H](CCSC)NC(=O)[C@@H](N)CCC(=O)O)C(=O)N[C@@H](CC(C)C)C(=O)N[C@@H](CCC(N)=O)C(=O)N[C@@H](CCCNC(=N)N)C(=O)N[C@@H](CCCCN)C(=O)N[C@@H](CCCCN)C(=O)O [CSP1],"preferential cleavage site, porcine trypsin",porcine trypsin,R15 followed by K6 and R9
same,HAT concentration to reduce the recombination frequency to below 5% of 0 trypsin,D39x comC^-,1 µg/mL
same,PPT concentration to reduce the recombination frequency to below 5% of 0 trypsin,D39x comC^-,0.05 µg/mL
same,recombination frequency after incubation of CSP with mouse lung homogenate,"D39x; mouse lung homogenate, ex vivo",reduced
